Source: patent publication US20230087994A1, “TARGETED BIFUNCTIONAL DEGRADERS” (YALE UNIVERSITY, priority 2019, published 2023)

Legend:
[1] = tested on: HepG2 cells; assay: DNP-AF3-mediated endocytosis of fluorescently labeled α-DNP antibody by HepG2 cells (flow cytometry); assay type: cell-based, human; conditions: 40 nM DNP-AF3, 100 nM antibody; ASF 2.07 μM; AF and GalNAc 1.25 mM; FIG. 105
Protocol: The intracellular fluorescence of cells that were incubated at 37° C. with both fluorescently labeled α-DNP antibody and DNP-AF3 for a given amount of time was examined. Cells were then washed, removed from the plate with trypsin, and subjected to flow cytometry. Trypsin treatment is expected to cleave ASGPR and surface-bound α-DNP antibody from cells, and therefore the cellular fluorescence observed in these assays is expected to arise only from internalized antibodies.
It was then determined if reagents which inhibit ternary complex formation inhibit endocytosis mediated by DNP-AF3. In order to account for non-specific antibody association with cells, the mean fluorescence intensity of an aliquot of cells which had been treated with α-DNP antibody but not DNP-AF3 was subtracted from each reading. […] In the presence of 2.38 μM (0.1 mg/mL) ASOR, the cell population fluorescence was decreased to 4.66e5 (FIG. 105); at this ASOR concentration, ternary complex formation is decreased by approximately 70%. Because ternary complex is not inhibited completely at this concentration of ASOR, it is expected that productive endocytic events are still taking place.

[2] = tested on: α-DNP antibody; assay: Depletion of α-DNP antibody from serum in mice (ELISA); assay type: in vivo; conditions: i.p.; FIG. 79A
[3] = tested on: HepG2 cells; assay: DNP-GN3-mediated endocytosis of fluorescently labeled α-DNP antibody by adherent HepG2 cells; assay type: cell-based, human; conditions: competitive binders at high concentrations; FIG. 88
[4] = tested on: ASGPR on the surface of immortalized human hepatocyte HepG2 cells; assay: DNP-GN3-mediated ternary complex formation: association of fluorescently labeled α-DNP antibody with HepG2 cells in suspension; assay type: cell-based; conditions: competition; FIG. 86B-86C; read-out: IC50, decrease of DNP-GN3-mediated cellular fluorescence
Source text: It was investigated whether DNP-GN3 could mediate the formation of a ternary complex between a fluorescently labeled α-DNP antibody and ASGPR on the surface of immortalized human hepatocyte HepG2 cells in suspension. […] The observed bell-shaped response to DNP-GN3 concentration is consistent with the prozone effect commonly observed in systems wherein a ternary complex is formed.

[5] = Tolerability of DNP-GN3 and DNP-OH3 in mice (body weight, AST, ALT); assay type: in vivo; conditions: all tested concentrations; FIGS. 93A-93C
Protocol: FIGS. 93A-93C illustrate that DNP-GN3 and DNP-OH3 are not toxic to mice at all tested concentrations. FIG. 93A: mouse body weight following treatment with DNP-GN3 or DNP-OH3. Statistical differences were analyzed by T test. FIG. 93B: levels of aspartate transaminase (AST) in treated mice. Dashed lines represent the normal range. FIG. 93C: levels of alanine transaminase (ALT) in treated mice. Dashed lines represent the normal range.

[6] = tested on: α-DNP antibody; assay: Depletion of α-DNP antibody from serum in mice (ELISA); assay type: in vivo; conditions: negative control compound; FIG. 95
Protocol: FIG. 94 illustrates that serum levels of α-DNP antibody decrease more rapidly following repeated treatment with DNP-GN3. Serum antibody levels were measured using an ELISA assay. Each experimental group contained three mice. Statistical differences in experiments involving in vivo depletion of α-DNP antibody were assessed by repeated measures two-way ANOVA with Tukey's tests for post-hoc comparison of simple effects between each of the treatment groups and PBS.
Single doses of DNP-GN3 were also found to be efficacious at mediating α-DNP antibody depletion, albeit less effectively than daily dosing (FIG. 96). […] Therefore, it was concluded that DNP-GN3 is able to mediate the depletion of a monoclonal antibody from serum, and functions across a wide range of target protein concentrations and dosing regimens.
DNP-GN3 was also found to be efficacious in depleting polyclonal α-DNP antibody from serum collected from mice immunized with DNP-keyhole limpet haemocyanin (KLH) (FIG. 97). […] Thus, the small molecule DNP-GN3 is not restricted in function to only monoclonal mouse antibodies, but is also effective at removing polyclonal α-DNP antibodies from circulation in mice.

[7] = tested on: ASGPR on the surface of HepG2 cells; assay: DNP-AF3-mediated ternary complex formation: α-DNP antibody association with HepG2 cells (flow cytometry); assay type: cell-based, human; conditions: 40 nM DNP-AF3, 100 nM α-DNP antibody; FIG. 99; read-out: IC50, inhibition of DNP-AF3-mediated ternary complex formation
Protocol: DNP-AF3 utilizes trivalent display of a higher affinity ASGPR ligand to engage the receptor. First, the effect of DNP-AF3 concentration on α-DNP antibody association with cells was determined (FIG. 98). In these experiments, a constant amount of α-DNP antibody and cells was incubated with various concentrations of DNP-AF3. The mean fluorescence intensity of the cell population was measured using flow cytometry. In order to account for background cellular fluorescence and non-DNP-AF3 mediated antibody association with cells, the mean fluorescence intensity of a sample of cells which had been treated with α-DNP antibody but not DNP-AF3 was subtracted from each data point.
Next, whether increasing concentrations of a competitive binder of the α-DNP antibody inhibits ternary complex formation was investigated. […] However, different preparations of the HepG2 cells and/or compound gave varying mean fluorescence intensity for the cell population between different independent experimental replicates. Therefore, for competition studies, inhibition of ternary complex formation was reported rather than mean fluorescence intensity of the cell population. 100% ternary complex formation is corrected to the fluorescence of a cell population treated with both 40 nM DNP-AF3 and 100 nM α-DNP antibody, while 0% ternary complex formation is corrected to a mixture of cells and α-DNP antibody without DNP-AF3.

O=C(CCOCC(COCCC(=O)NCCOCCOCCO)(COCCC(=O)NCCOCCOCCO)NC(=O)CNC(=O)COCCOCCOCCNc1ccc([N+](=O)[O-])cc1[N+](=O)[O-])NCCOCCOCCO [DNP-OH3, reference compound]
effect on DNP-AF3-mediated α-DNP antibody endocytosis [1]: decreased to near-background levels
degradation of injected anti-DNP IgG antibodies in mouse serum [2]: did not show such effect
effect on DNP-GN3-mediated α-DNP antibody endocytosis [3]: significantly decreased
IC50 [4]: 36 nM
toxicity to mice [5]: not toxic
antibody depletion from serum [6]: No accelerated antibody depletion
IC50 [7]: 40.6 nM
